Entries after “also recorded” stand apart in the source; their conditions may differ. Primed or numbered codes have the meaning given here. Where no end group is shown, it is not given here. PEG27′ = polyethylene glycol chain of 27 units

The test system of one series is ERK1/2 phosphorylation. As to the kind of experiment: Signal transduction assay, Western blotting of phospho-ERK1/2 in AML14.3D10-CCR3 cells. The conditions noted are these: 10 μM, CCL11-induced. The format is cell-based, human. As to the method:
Phospho-ERK was detected using a specific antibody. The membrane was stripped and reprobed for total ERK1/2 as loading control. Immunoblots were quantified by densitometry using ImageJ. PD: PD184161, MEK inhibitor.
AML14.3D10-CCR3 cells were serum starved for 16 hours. Cells were pretreated with vehicle control, R3-2-1 or PD184161 for 30 minutes at 37° C., and subsequently stimulated with 8 nM CCL5 or CCL11 for 2 minutes. Stimulation was stopped by adding ice cold PBS. Cells were centrifuged and lysed in RIPA buffer containing protease and phosphatase inhibitors. Cell lysates were resolved on a 12% SDS-PAGE gel (10 μg/lane), transferred to PVDF membrane and blocked in 5% milk. Phospho-ERK1/2 was detected using rabbit monoclonal antibody (clone D13.14.4E, Cell Signaling Technology, Danvers, Mass.) and secondary goat anti-rabbit IgG-HRP (Santa Cruz Biotechnology, Dallas, Tex.). As a loading control, the membrane was subsequently stripped and re-probed with an antibody against total ERK1/2 (clone 127F5, Cell Signaling Technology).
Concurrent to ligand binding and activation, CCR3 undergoes ligand-induced desensitization and internalization (Zimmermann, et al. (1999) J. Biol. Chem. 274:12611-12618). As part of the desensitization process, CCR3 is degraded. This is thought to occur via β-arrestin recruitment to phosphorylated CCR3 and subsequent sequestration of the receptor into endosomal compartments, eventually leading to degradation. β-arrestin signaling is central in this process and is characterized by a late activation of signaling pathways such as MAPK/ERK1/2, in contrast to acute activation by G proteins. […] Therefore, the R3-2-1 peptide is a biased antagonist in that it inhibits the […] of CCL11 ligand-induced β-arrestin signaling, whereas the small molecule inhibitors are unbiased antagonists.
In general terms: A western blot detects proteins with antibodies after separation by electrophoresis.

Series [1] concerns the target T1, CCR3 (Homo sapiens, UniProt P51677).
T1 sequence (P51677 1-355): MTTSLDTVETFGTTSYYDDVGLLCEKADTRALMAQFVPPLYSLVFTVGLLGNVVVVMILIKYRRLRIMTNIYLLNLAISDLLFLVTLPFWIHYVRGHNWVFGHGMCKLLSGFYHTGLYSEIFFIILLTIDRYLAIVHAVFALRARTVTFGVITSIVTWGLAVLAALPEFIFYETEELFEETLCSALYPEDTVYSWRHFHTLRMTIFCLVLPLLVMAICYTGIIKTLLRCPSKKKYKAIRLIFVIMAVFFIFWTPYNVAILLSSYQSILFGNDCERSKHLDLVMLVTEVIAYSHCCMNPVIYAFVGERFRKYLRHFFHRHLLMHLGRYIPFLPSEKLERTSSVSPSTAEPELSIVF
As to the kind of experiment: Chemotaxis assay (Transwell), AML14.3D10-CCR3 cells. The format is cell-based. Also noted: host or cells: AML14.3D10-CCR3 (eosinophilic myelocytic cell line, kept under G418). The conditions noted are these: for tolerance to inhibition of CCL11-induced chemotaxis: 1 μM for 24, 48 or 72 hour, CCL11 12 nM; for inhibition of CCR3-mediated chemotaxis induced by Eotaxin/CCL11, RANTES/CCL5 and MEC/CCL28: AML14.3D10-CCR3 cells, R3-2-1 0.4, 2 or 10 μM. As to the method: AML14.3D10-CCR3 (ATCC, Manassas, Va.; Daugherty, et al. (1996) J. Exp. Med. 183:2349-2354) were maintained in RPMI-1640 supplemented with 10% FBS, 1.5 g/L sodium bicarbonate, 4.5 g/L glucose, 2 mM L-glutamine, 10 mM HEPES, 1 mM sodium pyruvate, 50 μM β-mercaptoethanol, and 2 mg/ml G418 in a humidified incubator with 5% CO2 at 37° C.
Cell migration was determined using a 96-well […]® system (Corning, Tewksbury, Mass.). […] The two chambers were separated by a polycarbonate filter with 5 μm pores. For AML14.3D10-CCR3 cells, 2×10^5 cells/well were resuspended in RPMI-1640+0.1% BSA and allowed to migrate for 4 hours at 37° C. For blood eosinophils, 1×10^5 cells/well were resuspended in X-VIVO 10+0.5% BSA and allowed to migrate for 3 hours at 37° C. Migrated cells were counted using a Beckman QUANTA SC flow cytometer. All experiments were performed in duplicate. Checkerboard analysis was done to distinguish chemotaxis from chemokinesis.
Primary eosinophils and the stable CCR3+eosinophilic myelocytic cell line, AML14.3D10-CCR3 (Daugherty, et al. (1996) J. Exp. Med. 183:2349-2354) undergo CCR3-mediated chemotaxis induced by multiple chemokines including eotaxin/CCL11, RANTES/CCL5, MCP-4/CCL13, and MEC/CCL28 (Daugherty, et al. (1996) J. Exp. Med. 183:2349-2354; Pan, et al. (2000) J. Immunol. 165:2943-2949).

Series [2] concerns the target T1, CCR3. In words: CCR3 surface expression and internalization by flow cytometry, AML14.3D10-CCR3 cells. The class given is cell-based. Also noted: host or cells: AML14.3D10-CCR3 (eosinophilic myelocytic cell line, kept under G418). The conditions noted are these: for CCR3 internalization or surface accumulation on prolonged treatment: 1 μM for 24, 48 or 72 hour, with or without CCL11 (12 nM); for CCL11-induced receptor internalization: 1 μM, added concurrently with 12 nM CCL11. As to the method:
Error bars represent SEM. *p<0.05, compared to untreated cells; n=3.
To assess surface expression of CCR3, cells were stained using PE-conjugated anti-human CCR3 antibody (clone 5E8, BioLegend) or PE-conjugated isotype-matched control after blocking with 10% human AB serum. To determine ligand-induced CCR3 internalization, cells were incubated with various chemokines for 1 hour at 37° C., washed once in staining buffer (PBS+0.5% BSA+0.1% NaN3) before being stained as above. After antibody staining, cells were fixed in 2% paraformaldehyde and analyzed on a QUANTA SC flow cytometer (Beckman Coulter, Indianapolis, Ind.).
Background: In flow cytometry, cells or beads pass a laser one at a time.

Series [3] concerns eosinophil recruitment into the esophageal epithelium. In words: Mouse model of EoE, oxazalone-challenged L2-IL5 transgenic mice. The format is in vivo. The conditions noted are these: i.v., 24 hours after last OXA challenge. As to the method: Skin sensitized L2-IL5 transgenic mice received topical esophageal oxazalone (OXA) challenges by gavage (i.e.) on days 5, 8 and 12 (FIG. 5A). R3-2-1 peptide nanoparticles, control peptide (R3-2-3) or CCR3 inhibitor UCB35625 (UCB) were given immediately before on days 5, 8, 10 and 12 (FIG. 5A). Esophageal eosinophilia was assessed 24 hours after the last OXA challenge and treatment (day 13). […] Error bars represent SEM.
Mice were treated i.v. with R3-2-1 peptide, scrambled R3-2-3 control peptide ([…]-PEG27-NH2; SEQ ID NO:24), or the allosteric non-selective CCR3 inhibitor, UCB35625. Eosinophil recruitment into the esophageal epithelium was assessed 24 hours after the last OXA challenge by counting eosinophils in 9 high power fields (hpf) covering the total esophagus or 3 hpf covering the distal esophagus.

Series [4] concerns the target T1, CCR3. In words: Eotaxin-induced chemotaxis of 4DE4-CCR3 cells. The class given is cell-based. Also on record: expressed in transfected cells; host or cells: 4DE4 mouse pre-B cell lymphoma line. The conditions noted are these: 80 nM eotaxin, 4 hours. As to the method:
Cells were pretreated with, and then allowed to migrate towards, 80 nM eotaxin in the presence of the various CCR3 transmembrane peptides for 4 hours. Data are from three independent experiments. Error bars represent SEM.
To determine the effects of these peptides on CCR3-mediated chemotaxis, 4DE4-CCR3 cells were allowed to migrate to eotaxin/CCL11 in the presence of each peptide. 4DE4-CCR3, a mouse pre-B cell lymphoma line engineered to stably express human CCR3, has been used extensively to study CCR3 expression and CCR3-mediated chemotaxis.

The subject of another series is 4DE4-CCR3 cells. As to the kind of experiment: Cytotoxicity in 4DE4-CCR3 cells. The format is cell-based, mouse. The conditions noted are these: concentrations tested in chemotaxis assay.
Series [5] deals with T1, CCR3. As to the kind of experiment: Chemotaxis assay (Transwell), blood eosinophils. Also on record: host or cells: AML14.3D10-CCR3 (eosinophilic myelocytic cell line, kept under G418). The class given is cell-based. The conditions noted are these: scramble peptide control. The source says:
Blood eosinophils were purified from anti-coagulated blood drawn from mild allergic asthmatic subjects. Peripheral blood was subjected to density gradient centrifugation over FICOLL-PAQUE® Plus (GE Healthcare, Pittsburgh, Pa.) media to obtain a pellet containing erythrocytes and granulocytes. After erythrocyte lysis via hypotonic shock, eosinophils were purified by negative selection using a cocktail of antibody-conjugated magnetic beads against non-eosinophils (Miltenyi Biotec, Auburn, Calif.). The eosinophils were resuspended in X-VIVO 10 without phenol red. The purity and viability of the eosinophils obtained was routinely >97% as assessed by Hema III and trypan blue staining, respectively.
Cell migration was determined using a 96-well TRANSWELL® system (Corning, Tewksbury, Mass.). Briefly, 200 μl chemoattractant or control medium was added to the lower chamber while 100 μl cells were added to the upper chamber. The two chambers were separated by a polycarbonate filter with 5 μm pores. For AML14.3D10-CCR3 cells, 2×10^5 cells/well were resuspended in RPMI-1640+0.1% BSA and allowed to migrate for 4 hours at 37° C. […] Migrated cells were counted using a Beckman QUANTA SC flow cytometer. All experiments were performed in duplicate. Checkerboard analysis was done to distinguish chemotaxis from chemokinesis.
Primary eosinophils and the stable CCR3+eosinophilic myelocytic cell line, AML14.3D10-CCR3 (Daugherty, et al. (1996) J. Exp. Med. 183:2349-2354) undergo CCR3-mediated chemotaxis induced by multiple chemokines including eotaxin/CCL11, RANTES/CCL5, MCP-4/CCL13, and MEC/CCL28 (Daugherty, et al. (1996) J. Exp. Med. 183:2349-2354; Pan, et al. (2000) J. Immunol. 165:2943-2949). […] In addition, R3-2-1 inhibits chemotaxis of both AML14.3D10-CCR3 and blood eosinophils induced by CCL11/Eotaxin-1, CCL24/Eotaxin-2, and CCL26/Eotaxin-3 in a dose-dependent fashion (Table 3).

For the compound `COC(=O)[C@H](Cc1ccc([N+](=O)[O-])cc1)NC(=O)c1cccc2ccccc12` [SB328437, N-(1-Naphthalenylcarbonyl)-4-nitro-L-phenylalanine methyl ester, reference compound], the “acute (2-5 minutes) and late (30 minutes) phase phosphorylation of ERK1/2” value (shortened to “acute (2-5 minutes) and late”) with ERK1/2 phosphorylation is “inhibits both acute and late phase phosphorylation”. Besides, on CCR3 [1], the “tolerance to inhibition of CCL11-induced chemotaxis” value was “slowly lose their ability to antagonize CCL11-induced chemotaxis”; the “inhibition of CCR3-mediated chemotaxis induced by Eotaxin/CCL11, RANTES/CCL5 and MEC/CCL28” value is “only inhibits CCL11-induced but not CCL5- or CCL28-induced chemotaxis”. For the same compound, on CCR3 [2], the “CCR3 internalization or surface accumulation on prolonged treatment” value is recorded as “surface accumulation” and the CCL11-induced receptor internalization entry is “significantly inhibit chemokine-induced CCR3 internalization”.
Consider `CC[N+]1(C/C2=C/CCCCCC2)CCC(NC(=O)C2c3cc(Cl)ccc3Oc3ccc(Cl)cc32)CC1.[I-]` (stereo not drawn) [UCB35625, 1,4-trans-1-(1-Cycloocten-1-ylmethyl)-4-[[(2,7-dichloro-9H-xanthen-9-yl)carbonyl]amino]-1-ethylpiperidinium iodide, reference compound], for which the “acute (2-5 minutes) and late” value with ERK1/2 phosphorylation was “inhibits the late phase to a higher degree than the early phase phosphorylation”. Also, in series [3], the “eosinophil recruitment into distal and total esophageal epithelium” value is listed as “had no effect; also recorded: ineffective in reducing eosinophil recruitment”. Moreover, at CCR3 [1], the “tolerance to inhibition of CCL11-induced chemotaxis” value is recorded as “slowly lose their ability to antagonize CCL11-induced chemotaxis”; the “inhibition of CCR3-mediated chemotaxis induced by Eotaxin/CCL11, RANTES/CCL5 and MEC/CCL28” value was “potent inhibitor of chemotaxis induced by multiple CCR3 agonists in vitro”. For the same compound, at CCR3 [2], the “CCR3 internalization or surface accumulation on prolonged treatment” value was “surface accumulation” and the CCL11-induced receptor internalization entry is “significantly inhibit chemokine-induced CCR3 internalization”.
With Ac-KDDDLLSGFYHTGLYSEIFFIILLTI [TM3], in the series with CCR3 [4], the “inhibition of eotaxin-induced chemotaxis of 4DE4-CCR3 cells” value is “no significant CCR3 antagonism”.
Turning to Ac-KDDDQFVPPLYSLVFTVGLLGNVVVVMILI [TM1], in the series with 4DE4-CCR3 cells, the cytotoxicity entry is given as “moderately cytotoxic”.
For Ac-VTFGVITSIVTWGLAVLAALPEFIFDDDK [TM4], in the series with CCR3 [4], the “inhibition of eotaxin-induced chemotaxis of 4DE4-CCR3 cells” value is “no significant CCR3 antagonism”.
With CDDDTIFCLVLPLLVMAICYTGII [TM5], the cytotoxicity result with 4DE4-CCR3 cells is reported as “highly cytotoxic”.
For the compound CDDDVMLVTEVIAYSHCCMNPVIYAFV [TM7], in the series with 4DE4-CCR3 cells, the cytotoxicity entry was “highly cytotoxic”.
As for LIFVIMAVFFIFWTPYNVAILDDDC [TM6], the cytotoxicity result with 4DE4-CCR3 cells is “highly cytotoxic”.
On the same count and under the same terms, with LLNLAISDLLFLVTLPFWIHYDDDC [TM2] the entry was “undetectable or low cytotoxicity”.
As to “YLFLLVTVFHIWLPHNRGHVWGFDDD-PEG27-NH2 (YLFLLVTVFHIWLPHNRGHVWGFDDD-{PEG27′-NH2}) [Peptide R3-2-3, reference compound]”, the “acute (2-5 minutes) and late” value in the series with ERK1/2 phosphorylation was “does not inhibit either acute or late phase phosphorylation”. Besides, in the series with CCR3 [5], the “CCL11-, CCL24-, or CCL26-induced chemotaxis of blood eosinophils” value is recorded as “did not inhibit”. In the series with CCR3 [2], the CCL11-induced receptor internalization entry is on record as “neither R3-2-1 (1 μM) nor R3-2-3 (1 μM) interfere with CCL11-induced receptor internalization”.

The values are drawn from patent publication US11167012B2, “Peptide inhibition of CCR3-mediated diseases or conditions” (The Board of Trustees of the University of Illinois, priority 2015, dated 2021).
